Results: PubChem BioAssay AID2060497 (Molecular Pharmacology Branch, DTP, NCI, 2025)

System: 317291-083-R-J1-PDC complex spheroids, viability
Experiment: Anticancer human tumor 317291-083-R-J1-PDC patient-derived soft tissue sarcoma cell line growth inhibition [GQUAD]
Settings: for IC50: curve of first compound; for viability, T/C: stronger effect = lower value
Outline: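 Tumor cells were grown as complex spheroids with HUVEC endothelial cells and mesenchymal stem cells as stroma. G-quadruplex stabilizers were combined with targeted agents over half-log dilutions from near the clinical Cmax, or from 10 microM.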

[1] = second compound 0.0316 µM, first compound 0.0316 µM
[2] = second compound 0.0316 µM, first compound 0.316 µM
[3] = second compound 0.1 µM, first compound 0.0316 µM
[4] = second compound 0.1 µM, first compound 0.316 µM
[5] = second compound 0.316 µM, first compound 0.0316 µM
[6] = second compound 0.316 µM, first compound 0.316 µM
[7] = second compound 1 µM, first compound 0.0316 µM
[8] = second compound 1 µM, first compound 0.316 µM
[9] = second compound 3.16 µM, first compound 0.0316 µM
[10] = second compound 3.16 µM, first compound 0.316 µM
[11] = second compound 10 µM, first compound 0.0316 µM
[12] = second compound 10 µM, first compound 0.316 µM
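Also: spheroids exposed to compounds for one week before readout.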
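For viability, T/C in this document: percent viability relative to DMSO vehicle wells taken as 100%.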

`CC[C@@]1(O)C(=O)OCc2c1cc1n(c2=O)Cc2cc3c(CN(C)C)c(O)ccc3nc2-1` + Cc1[nH]c2ccc(F)cc2c1-c1nc2c3cccnc3c3ncccc3c2[nH]1 gave an IC50 (second compound 0.0316 µM) of 0.0539 µM, an IC50 (second compound 0.1 µM) of 0.0615 µM and an IC50 (second compound 0.316 µM) of 0.0559 µM. It also gave an IC50 (second compound 1 µM) of 0.0607 µM, an IC50 (second compound 3.16 µM) of 0.0465 µM and an IC50 (second compound 10 µM) of 0.0245 µM. For the same compound, the viability, T/C (second compound 0.0316 µM, first compound 0.000999 µM) was 97.6%, the viability, T/C (second compound 0.0316 µM, first compound 0.00316 µM) was 92% and the viability, T/C (second compound 0.0316 µM, first compound 0.00999 µM) was 83%. The viability, T/C [1] was 72.3%, the viability, T/C (second compound 0.0316 µM, first compound 0.0999 µM) was 25% and the viability, T/C [2] was 14.7%. For the same compound, the viability, T/C (second compound 0.1 µM, first compound 0.000999 µM) was 106%, the viability, T/C (second compound 0.1 µM, first compound 0.00316 µM) was 91.9% and the viability, T/C (second compound 0.1 µM, first compound 0.00999 µM) was 91.2%. For the same compound, the viability, T/C [3] was 87.6%, the viability, T/C (second compound 0.1 µM, first compound 0.0999 µM) was 22.5% and the viability, T/C [4] was 17.7%. For the same compound, the viability, T/C (second compound 0.316 µM, first compound 0.000999 µM) was 96.9%, the viability, T/C (second compound 0.316 µM, first compound 0.00316 µM) was 97.9% and the viability, T/C (second compound 0.316 µM, first compound 0.00999 µM) was 90.9%. The viability, T/C [5] was 75.7%, the viability, T/C (second compound 0.316 µM, first compound 0.0999 µM) was 24.1% and the viability, T/C [6] was 9.9%. It also gave a viability, T/C (second compound 1 µM, first compound 0.000999 µM) of 98.8%, a viability, T/C (second compound 1 µM, first compound 0.00316 µM) of 96.6% and a viability, T/C (second compound 1 µM, first compound 0.00999 µM) of 108%. It also gave a viability, T/C [7] of 74.4%, a viability, T/C (second compound 1 µM, first compound 0.0999 µM) of 30.9% and a viability, T/C [8] of 9.35%. For the same compound, the viability, T/C (second compound 3.16 µM, first compound 0.000999 µM) was 97.6%, the viability, T/C (second compound 3.16 µM, first compound 0.00316 µM) was 100% and the viability, T/C (second compound 3.16 µM, first compound 0.00999 µM) was 80.4%. It also gave a viability, T/C [9] of 64.6%, a viability, T/C (second compound 3.16 µM, first compound 0.0999 µM) of 26.2% and a viability, T/C [10] of 9.6%. It also gave a viability, T/C (second compound 10 µM, first compound 0.000999 µM) of 63.8%, a viability, T/C (second compound 10 µM, first compound 0.00316 µM) of 69.1% and a viability, T/C (second compound 10 µM, first compound 0.00999 µM) of 84%. For the same compound, the viability, T/C [11] was 43.7%, the viability, T/C (second compound 10 µM, first compound 0.0999 µM) was 18.7% and the viability, T/C [12] was 8.82%.

With `O=C(c1cc(Cc2n[nH]c(=O)c3ccccc23)ccc1F)N1CCN(C(=O)C2CC2)CC1` + Cc1[nH]c2ccc(F)cc2c1-c1nc2c3cccnc3c3ncccc3c2[nH]1 the IC50 (second compound 0.0316 µM) was greater than 10 µM, the IC50 (second compound 0.1 µM) was greater than 10 µM and the IC50 (second compound 0.316 µM) was greater than 10 µM. The IC50 (second compound 1 µM) was greater than 10 µM, the IC50 (second compound 3.16 µM) was 8.8 µM and the IC50 (second compound 10 µM) was greater than 10 µM. For the same compound, the viability, T/C [1] was 97.2%, the viability, T/C (second compound 0.0316 µM, first compound 0.1 µM) was 92.2% and the viability, T/C [2] was 91.8%. For the same compound, the viability, T/C (second compound 0.0316 µM, first compound 1 µM) was 91.6%, the viability, T/C (second compound 0.0316 µM, first compound 3.16 µM) was 80.6% and the viability, T/C (second compound 0.0316 µM, first compound 10 µM) was 69.5%. The viability, T/C [3] was 108%, the viability, T/C (second compound 0.1 µM, first compound 0.1 µM) was 116% and the viability, T/C [4] was 93.4%. It also gave a viability, T/C (second compound 0.1 µM, first compound 1 µM) of 94.8%, a viability, T/C (second compound 0.1 µM, first compound 3.16 µM) of 92.8% and a viability, T/C (second compound 0.1 µM, first compound 10 µM) of 65.3%. It also gave a viability, T/C [5] of 101%, a viability, T/C (second compound 0.316 µM, first compound 0.1 µM) of 111% and a viability, T/C [6] of 101%. It also gave a viability, T/C (second compound 0.316 µM, first compound 1 µM) of 103%, a viability, T/C (second compound 0.316 µM, first compound 3.16 µM) of 92.8% and a viability, T/C (second compound 0.316 µM, first compound 10 µM) of 52.1%. For the same compound, the viability, T/C [7] was 109%, the viability, T/C (second compound 1 µM, first compound 0.1 µM) was 112% and the viability, T/C [8] was 91.5%. It also gave a viability, T/C (second compound 1 µM, first compound 1 µM) of 93.8%, a viability, T/C (second compound 1 µM, first compound 3.16 µM) of 90.3% and a viability, T/C (second compound 1 µM, first compound 10 µM) of 60.2%. The viability, T/C [9] was 81.6%, the viability, T/C (second compound 3.16 µM, first compound 0.1 µM) was 82.9% and the viability, T/C [10] was 72.8%. For the same compound, the viability, T/C (second compound 3.16 µM, first compound 1 µM) was 75.2%, the viability, T/C (second compound 3.16 µM, first compound 3.16 µM) was 69.6% and the viability, T/C (second compound 3.16 µM, first compound 10 µM) was 47.2%. The viability, T/C [11] was 105%, the viability, T/C (second compound 10 µM, first compound 0.1 µM) was 84.4% and the viability, T/C [12] was 96.3%. The viability, T/C (second compound 10 µM, first compound 1 µM) was 81.8%, the viability, T/C (second compound 10 µM, first compound 3.16 µM) was 98% and the viability, T/C (second compound 10 µM, first compound 10 µM) was 58.6%.
